Experimental data as given in patent publication US20230167058A1, “GPX4 COMPOUNDS AND COMPOSITIONS AND METHODS OF TREATMENT USING SAME” (THE TRUSTEES OF COLUMBIA UNIVERSITY IN THE CITY OF NEW YORK, priority 2020, published 2023).
“Also recorded” adds a separate entry of the source.

How the values were obtained:
Format in all cases: binding
GPX4^U46C [1] = biological target: T1, GPX4^U46C (Homo sapiens, UniProt P36969, U73C); test: Thermal shift assay (screen of LOC library)
T1 construct: His6 (N, cleaved yes); made in house; host or cells: E. coli BL21-Gold (DE3), M9 minimal medium with 15NH4Cl
T1 sequence (P36969 33-197 U73C): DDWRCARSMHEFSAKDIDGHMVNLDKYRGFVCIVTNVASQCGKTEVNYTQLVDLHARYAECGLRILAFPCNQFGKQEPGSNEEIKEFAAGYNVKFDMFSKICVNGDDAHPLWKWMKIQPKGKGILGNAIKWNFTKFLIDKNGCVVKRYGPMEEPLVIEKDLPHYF
Procedure: To fully utilize the versatility shown by the […] site to accommodate structurally diverse compounds, we applied thermal shift assay to screen 9,719 compounds in the Lead-Optimized-Compound (LOC) library for in vitro binders of GPX4^U46C, which would shift the melting temperature of GPX4^U46C (|ΔTm|>2° C., FIG. 12D) (Kaplan et al. 2015).
Since the binding of small molecules may alter the thermostability of protein, we applied thermal shift assay to screen the LOC library, which determined binding of ligand from the change of the unfolding transition temperature (ΔTm) obtained in the presence of ligands relative to that obtained in the absence of ligands (Kaplan et al. 2015; Lo et al. 2004). For higher throughput purpose, we adapted the assay on 384-well PCR plate. With the assistance of Biomek Automated Liquid Handler (Beckman), 2 μl 10 mM stock solution (in 100% DMSO) of the each compound was transferred from 384-well library plates to 38 μl FPLC buffer (100 mM Tris pH 8.0, 300 mM NaCl, 3 mM TCEP) and mixed in each well of a 384-well mother plate. The compound solution was then dispensed, 12 μl per well, into three 384-well PCR plates. GPX4^U46C protein and Sypro orange were manually added to the plate, with the final concentrations of 5 μM and 5×, respectively, to make a volume of 20 μl per well right before thermal shift analysis of the specific plate. The thermal shift assay was performed on the ViiA 7 Real-Time PCR system (Thermo Fisher) with the thermal protocol: 25° for 15 s, Increase temp to 99° at a rate of 0.05°/sec, 99° for 15 sec. The fluorescence was recorded and analyzed by Protein Thermal Shift™ software. The mean |ΔTm| value for the biological triplicates were calculated and used for hit identification.

GPX4^U46C [2] = biological target: T1, GPX4^U46C; test: Intact protein MALDI MS analysis, GPX4^U46C; settings: protein preincubated with excess inhibitor
Procedure: GPX4^U46C or GPX4^AllCys(−)-A46C protein was pre-incubated with DMSO control or the inhibitor to be tested prior to MALDI MS analysis: 50 μM GPX4 protein was incubated with 500 μM inhibitors in FPLC buffer (100 mM Tris pH 8.0, 300 mM NaCl, and 3 mM TCEP) with 5% DMSO at RT for 1 hour before transferring to 4° C. overnight.
1 μl of the ligand-free protein (pre-incubated with DMSO) or protein-inhibitor complex (pre-incubated with the inhibitor to be tested) was mixed with 9 μl of 10 mg/ml sinapinic acid in the matrix solution (70:30 water/acetonitrile, with 0.1% TFA). 1.0 μl of the final mix was deposited onto the target carrier and allowed to air dry. MALDI spectrum was recorded using Bruker ultrafleXtreme MALDI-TOF instrument. The range of m/z detection and suppression was adjusted to accommodate the molecular weight of target protein. 2000 Hz and 50% intensity was applied for the laser setting. For each sample, five cumulative spectra were collected and the sum was recorded for analysis. All MALDI spectra of protein-inhibitor complex were compared with ligand-free protein to determine the mass shift. Mass shifts were aligned with the mass of potential staying group of each inhibitor to conclude covalent binding.

GPX4^U46C [3] = biological target: T1, GPX4^U46C; test: 1H,15N-HSQC-NMR of 15N-labeled GPX4^U46C
Procedure: Uniformly ^15N-labeled GPX4^U46C protein with N-terminal His6 tag was prepared. The GPX4^U46C construct was expressed in E. coli BL21-Gold (DE3) cells (Stratagene) growing at 37° C. in M9 minimal medium supplemented with […] ampicillin, 2 mM MgSO4, […] CaCl2, 1× trace metals, 1×RPMI 1640 vitamin stock (Sigma-Aldrich, #R7256), […] biotin, […] thiamine hydrochloride, 4 g/L glucose, and 3 g/L ^15NH4Cl as the sole nitrogen source. The following induction, lysis, and protein purification was the same as for the non-isotope-labeled His-tagged GPX4^U46C described above, except the N-terminal His6 tag was removed by adding 5 U/mg thrombin before FPLC purification. The thrombin reaction was after a buffer exchange to remove imidazole, which otherwise would inhibit thrombin, and was allowed to proceed overnight at 4° C.
Then the protein solution was concentrated to 50 μM before testing. For HSQC of GPX4 with other inhibitors, 50 μM ^15N-labeled GPX4 was preincubated with 800 μM inhibitor to be tested for […] at room temperature in buffer (100 mM MES, 5 mM TCEP, pH 6.5). D20 (10%) was then added for the field frequency lock. The ^1H-^15N HSQC spectra were collected on Bruker Avance III 500 Ascend (500 MHz) spectrometers (Columbia University) at 298K. The ^1H carrier frequency was positioned at the water resonance. The ^15N carrier frequency was positioned at 115 ppm. The spectral width in the ^1H dimension was 7,500 Hz and the width in the ^15N dimension was 1,824.6 Hz. Suppression of water signal was accomplished using the WATERGATE sequence. Heteronuclear decoupling was accomplished using GARP decoupling scheme.

Structure (SMILES)	Thermal shift (GPX4^U46C [1]; Table 1)	|ΔTm| (GPX4^U46C [1]; thermal shift screening top hit) [°C]	covalent binding to GPX4^U46C by intact protein MALDI MS (GPX4^U46C [2])	binding mode by HSQC NMR (GPX4^U46C [3])	Binding site (GPX4^U46C [3]; Table 1)	HSQC assay (GPX4^U46C [3]; Table 1)
COc1cccc2[nH]c(C(=O)n3ccnc3)cc12 [LOC1886]	positive	3	covalently bound	non-covalently binds to the RSL3-binding site; also recorded: strongly interacted with the cys66 binding site	Allosteric Site 1	positive
COC(=O)c1ccc([C@@H]2c3[nH]c4ccccc4c3C[C@@H](C(=O)OC)N2C(=O)CCl)cc1 [RSL3, (1S, 3R)-RSL3]	–	–	1:1 covalent binding	global conformational change induced by binding of RSL3 to cys66	–	–
